Laboratory results as given in ChEMBL document CHEMBL4257557, “Design, synthesis, and evaluation of 4,5,6,7-tetrahydrobenzo[d]thiazole-based novel dual kinase inhibitors of CK2 and GSK3β” (Medchemcomm, 2018).

Tests used:
[1] = target: T1, Casein kinase II subunit alpha (Homo sapiens, UniProt P68400); experiment: Inhibition of recombinant full length human His-tagged CK2alpha1 expressed in baculovirus expression system at 11 uM using ser/thr-11 peptide as substrate measured after 1 hr by Z'-Lyte assay relative to control
Target sequence in this assay (P68400 whole entry, looked up): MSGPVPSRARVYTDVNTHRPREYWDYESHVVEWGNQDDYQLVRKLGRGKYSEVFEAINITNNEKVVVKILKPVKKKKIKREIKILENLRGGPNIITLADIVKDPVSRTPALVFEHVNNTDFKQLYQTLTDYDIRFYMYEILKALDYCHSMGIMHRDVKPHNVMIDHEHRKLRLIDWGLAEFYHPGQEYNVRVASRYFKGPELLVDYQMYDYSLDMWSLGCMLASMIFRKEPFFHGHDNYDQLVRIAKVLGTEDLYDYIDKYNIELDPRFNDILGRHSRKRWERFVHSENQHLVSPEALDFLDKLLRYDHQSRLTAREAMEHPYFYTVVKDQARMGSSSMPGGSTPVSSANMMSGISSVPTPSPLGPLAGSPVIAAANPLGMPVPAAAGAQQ

[2] = target: T2, Glycogen synthase kinase-3 beta (Homo sapiens, UniProt P49841); experiment: Inhibition of recombinant full length human His-tagged GSK3beta expressed in baculovirus expression system at 11 uM using ser/thr-9 peptide as substrate measured after 1 hr by Z'-Lyte assay relative to control
Target sequence in this assay (P49841 whole entry, looked up): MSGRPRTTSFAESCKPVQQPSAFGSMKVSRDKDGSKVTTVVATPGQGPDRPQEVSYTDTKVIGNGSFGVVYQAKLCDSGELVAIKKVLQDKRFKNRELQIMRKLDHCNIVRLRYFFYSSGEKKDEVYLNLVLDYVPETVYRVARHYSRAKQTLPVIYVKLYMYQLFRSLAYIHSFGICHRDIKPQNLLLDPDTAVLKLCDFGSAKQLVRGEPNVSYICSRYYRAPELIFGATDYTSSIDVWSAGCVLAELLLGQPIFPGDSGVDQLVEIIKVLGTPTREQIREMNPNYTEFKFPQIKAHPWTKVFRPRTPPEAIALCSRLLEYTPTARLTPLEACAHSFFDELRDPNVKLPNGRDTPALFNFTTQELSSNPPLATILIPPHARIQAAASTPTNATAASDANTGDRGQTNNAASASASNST

[3] = target: T1, Casein kinase II subunit alpha; experiment: Inhibition of recombinant full length human His-tagged CK2alpha1 expressed in baculovirus expression system using ser/thr-11 peptide as substrate measured after 1 hr by Z'-Lyte assay
Target sequence in this assay (P68400 whole entry): as the sequence (P68400 whole entry, looked up) above

[4] = target: T2, Glycogen synthase kinase-3 beta; experiment: Inhibition of recombinant full length human His-tagged GSK3beta expressed in baculovirus expression system using ser/thr-9 peptide as substrate measured after 1 hr by Z'-Lyte assay
Target sequence in this assay (P49841 whole entry): as the sequence (P49841 whole entry, looked up) above

| SMILES | inhibition [1] | inhibition [2] | IC50 [3] | IC50 [4] |
| --- | --- | --- | --- | --- |
| CCOC(=O)c1ccc(NC(=O)Nc2nc3c(s2)CC(NC(=O)Nc2ccc(C(=O)OCC)cc2)CC3)cc1 (stereo not drawn) | < 30% | < 30% | – | – |
| COc1ccc(NC(=O)Nc2nc3c(s2)CC(NC(=O)Nc2ccc(OC)cc2)CC3)cc1 (stereo not drawn) | < 30% | < 30% | – | – |
| O=C(Nc1ccc(F)cc1)Nc1nc2c(s1)CC(NC(=O)Nc1ccc(F)cc1)CC2 (stereo not drawn) | < 30% | < 30% | – | – |
| O=C(Nc1nc2c(s1)CC(N1C(=O)c3ccccc3C1=O)CC2)Nc1ccccc1F (stereo not drawn) | < 30% | < 30% | – | – |
| CCCN(C(=O)Nc1ccc(OC)cc1)C1CCc2nc(NCc3ccc(C(=O)O)cc3)sc2C1 (stereo not drawn) | < 30% | < 30% | – | – |
| O=C(Nc1ccc(F)cc1)Nc1nc2c(s1)CC(N1C(=O)c3ccccc3C1=O)CC2 (stereo not drawn) | < 30% | < 30% | – | – |
| O=C(Nc1cccc(C(=O)O)c1)Nc1nc2c(s1)CC(N1C(=O)c3ccccc3C1=O)CC2 (stereo not drawn) | > 30% | > 30% | 1.9 µM | 0.67 µM |
| O=C(Nc1nc2c(s1)CC(NC(=O)Nc1ccccc1F)CC2)Nc1ccccc1F (stereo not drawn) | < 30% | < 30% | – | – |
| CCCN(C(=O)Nc1ccccc1F)C1CCc2nc(NC(=O)Nc3ccccc3F)sc2C1 (stereo not drawn) | < 30% | < 30% | – | – |
| COc1ccc(NC(=O)Nc2nc3c(s2)CC(N2C(=O)c4ccccc4C2=O)CC3)cc1 (stereo not drawn) | < 30% | < 30% | – | – |
| CCCN(C(=O)Nc1ccc(F)cc1)C1CCc2nc(NCc3ccc(C(=O)O)cc3)sc2C1 (stereo not drawn) | < 30% | < 30% | – | – |
| CCCN(C(=O)Nc1ccc(C(=O)OCC)cc1)C1CCc2nc(NCc3ccc(C(=O)OC)cc3)sc2C1 (stereo not drawn) | < 30% | < 30% | – | – |
| CCCN(C(=O)Nc1ccccc1F)C1CCc2nc(NCc3ccc(C(=O)O)cc3)sc2C1 (stereo not drawn) | < 30% | < 30% | – | – |
| O=C(Nc1ccc(C(=O)O)cc1)Nc1nc2c(s1)CC(NC(=O)Nc1ccc(C(=O)O)cc1)CC2 (stereo not drawn) | < 30% | < 30% | – | – |
| O=C(Nc1cccc(F)c1)Nc1nc2c(s1)CC(N1C(=O)c3ccccc3C1=O)CC2 (stereo not drawn) | < 30% | < 30% | – | – |
| CCCN(C(=O)Nc1ccc(OC)cc1)C1CCc2nc(NCc3ccc(C(=O)OC)cc3)sc2C1 (stereo not drawn) | < 30% | < 30% | – | – |
| CCCN(C(=O)Nc1ccc(OC)cc1)C1CCc2nc(NC(=O)Nc3ccc(OC)cc3)sc2C1 (stereo not drawn) | < 30% | < 30% | – | – |
| CCCN(C(=O)Nc1cccc(F)c1)C1CCc2nc(NCc3ccc(C(=O)OC)cc3)sc2C1 (stereo not drawn) | < 30% | < 30% | – | – |
| O=C(Nc1cccc(F)c1)Nc1nc2c(s1)CC(NC(=O)Nc1cccc(F)c1)CC2 (stereo not drawn) | < 30% | < 30% | – | – |
| O=C(Nc1ccc(C(=O)O)cc1)Nc1nc2c(s1)CC(N1C(=O)c3ccccc3C1=O)CC2 (stereo not drawn) | > 30% | > 30% | 4.9 µM | 4.6 µM |
| CCOC(=O)c1cccc(NC(=O)Nc2nc3c(s2)CC(N2C(=O)c4ccccc4C2=O)CC3)c1 (stereo not drawn) | > 30% | > 30% | 7.9 µM | 5.3 µM |
| CCOC(=O)c1ccc(NC(=O)Nc2nc3c(s2)CC(N2C(=O)c4ccccc4C2=O)CC3)cc1 (stereo not drawn) | < 30% | < 30% | – | – |
| CCCN(C(=O)Nc1ccccc1F)C1CCc2nc(NCc3ccc(C(=O)OC)cc3)sc2C1 (stereo not drawn) | < 30% | < 30% | – | – |
| CCCN(C(=O)Nc1ccc(F)cc1)C1CCc2nc(NCc3ccc(C(=O)OC)cc3)sc2C1 (stereo not drawn) | < 30% | < 30% | – | – |

More lines, now with the values ahead:

| inhibition [1] | inhibition [2] | IC50 [3] | IC50 [4] | SMILES |
| --- | --- | --- | --- | --- |
| < 30% | < 30% | – | – | CCCN(C(=O)Nc1ccc(C(=O)OCC)cc1)C1CCc2nc(NC(=O)Nc3ccc(C(=O)OCC)cc3)sc2C1 (stereo not drawn) |
| > 30% | > 30% | 20.4 µM | 2.5 µM | CCOC(=O)c1cccc(NC(=O)Nc2nc3c(s2)CC(NC(=O)Nc2cccc(C(=O)OCC)c2)CC3)c1 (stereo not drawn) |
| < 30% | < 30% | – | – | CCCN(C(=O)Nc1ccc(C(=O)O)cc1)C1CCc2nc(NCc3ccc(C(=O)O)cc3)sc2C1 (stereo not drawn) |
| < 30% | < 30% | – | – | CCCN(C(=O)Nc1cccc(F)c1)C1CCc2nc(NCc3ccc(C(=O)O)cc3)sc2C1 (stereo not drawn) |
| > 30% | > 30% | 4.6 µM | 13.6 µM | CCCN(C(=O)Nc1cccc(C(=O)OCC)c1)C1CCc2nc(NCc3ccc(C(=O)OC)cc3)sc2C1 (stereo not drawn) |
| > 30% | > 30% | 4 µM | 11.4 µM | CCCN(C(=O)Nc1cccc(C(=O)O)c1)C1CCc2nc(NCc3ccc(C(=O)O)cc3)sc2C1 (stereo not drawn) |
| > 30% | > 30% | 2.8 µM | 1.5 µM | CCCN(C(=O)Nc1cccc(C(=O)O)c1)C1CCc2nc(NC(=O)Nc3cccc(C(=O)O)c3)sc2C1 (stereo not drawn) |
| < 30% | < 30% | – | – | CCCN(C(=O)Nc1ccc(F)cc1)C1CCc2nc(NC(=O)Nc3ccc(F)cc3)sc2C1 (stereo not drawn) |
| > 30% | > 30% | 12.4 µM | 6 µM | O=C(Nc1cccc(C(=O)O)c1)Nc1nc2c(s1)CC(NC(=O)Nc1cccc(C(=O)O)c1)CC2 (stereo not drawn) |
| < 30% | < 30% | – | – | CCCN(C(=O)Nc1ccc(C(=O)O)cc1)C1CCc2nc(NC(=O)Nc3ccc(C(=O)O)cc3)sc2C1 (stereo not drawn) |
| < 30% | < 30% | – | – | CCCN(C(=O)Nc1cccc(F)c1)C1CCc2nc(NC(=O)Nc3cccc(F)c3)sc2C1 (stereo not drawn) |
| < 30% | < 30% | – | – | CCCN(C(=O)Nc1cccc(C(=O)OCC)c1)C1CCc2nc(NC(=O)Nc3cccc(C(=O)OCC)c3)sc2C1 (stereo not drawn) |
